The values that follow come from patent US20230146455A1, “TREATMENT OF INFLAMMATORY DISEASES WITH PEPTIDES AND PHARMACEUTICAL COMPOSITIONS” (Yuyu Pharma, Inc., priority 2020, published 2023).

This assay concerns IL-8. Kind of assay: Example 9 Luminex, LPS hPBMCs: IL-8. Type of assay: cell-based, human. On the procedure: Treatment Human PBMCs were pretreated with YY-101, YDE-011 and YDE-043 or reference compound; Xiidra® at various concentration (ranging from 1 nM to 100 uM) for 2 h before stimulation. An equal volume of 0.5% DMSO was used as a vehicle control. Then, the cells were treated with LPS at 5 ug/ml. The supernatants from treated cells were harvested at 24 h and placed in a 96 well for Luminex cytokine & chemokine profiling using a Luminex 200 multiplex assay (Luminex; R&D system, USA).
The main study arm with triplicate wells per group in a 24-well plate: • 1. Blank • 2. PBMC: 0.5% DMSO • 3. PBMC+LPS (5 ug/ml) • 4. PBMC+YY-101 100 uM • 5. PBMC+YY-101 10 uM • 6. PBMC+YY-101 1 uM • 7. PBMC+YY-101 0.1 uM • 8. PBMC+YY-101 0.01 uM • 9. PBMC+LPS (5 ug/ml)+Xiidra®100 uM • 10. PBMC+LPS (5 ug/ml)+Xiidra® 10 uM • 11. PBMC+LPS (5 ug/ml)+Xiidra® 1 uM • 12. PBMC+LPS (5 ug/ml)+Xiidra®0.1 uM • 13. PBMC+LPS (5 ug/ml)+Xiidra®0.01 uM • 14. PBMC+LPS (5 ug/ml)+Xiidra®0.001 uM • 15. PBMC+LPS (5 ug/ml)+YY-101 100 uM • 16. PBMC+LPS (5 ug/ml)+YY-101 10 uM • 17. PBMC+LPS (5 ug/ml)+YY-101 1 uM • 18. PBMC+LPS (5 ug/ml)+YY-101 0.1 uM • 19. PBMC+LPS (5 ug/ml)+YY-101 0.01 uM • 20. PBMC+LPS (5 ug/ml)+YY-101 0.001 uM • 21. PBMC+LPS (5 ug/ml)+YDE-011 100 uM • 22. PBMC+LPS (5 ug/ml)+YDE-011 10 uM • 23. PBMC+LPS (5 ug/ml)+YDE-011 1 uM • 24. PBMC+LPS (5 ug/ml)+YDE-011 0.1 uM • 25. PBMC+LPS (5 ug/ml)+YDE-011 0.01 uM • 26. PBMC+LPS (5 ug/ml)+YDE-011 0.001 uM • 27. PBMC+LPS (5 ug/ml)+YDE-043 100 uM • 28. PBMC+LPS (5 ug/ml)+YDE-043 10 uM • 29. PBMC+LPS (5 ug/ml)+YDE-043 1 uM • 30. PBMC+LPS (5 ug/ml)+YDE-043 0.1 uM • 31. PBMC+LPS (5 ug/ml)+YDE-043 0.01 uM • 32. PBMC+LPS (5 ug/ml)+YDE-043 0.001 uM
Multiplex assay was used to measure 30 cytokines and chemokines. The 1:2, 1:10 and 1:200 diluted cell supernatant and serial dilution of the standard were dispensed into a 96 well plate at 50 ul/well. Then, the pre-mixed cocktail of antibody-coated magnetic beads was dispensed at 50 ul/well and incubated at room temperature for 2 h in a horizontal orbital microplate shaker at 800±500 rpm. The beads were washed using a magnetic device to prevent loss. The biotin-antibody was dispensed in 50 ul of each well and incubated at room temperature for 1 h in a shaker at 800±500 rpm. After washing, streptavidin-PE was added at 50 ul/well and incubated at room temperature for 30 min in a shaker under the same conditions. Finally, after washing, wash buffer (100 ul/well) was added to the plate and incubated in a shaker for 2 min. The Luminex™ 200 setting were set according to the manufacturer's protocol. The data was calculated with a standard five-parameter logistic nonlinear regression analysis of the data (xPonent software 4.2, USA). The levels of cytokine/chemokine are normalized to the live cell counts (1×10^5 cells/mL) and presented as concentrations per mL (pg/mL or ng/mL).

[1] abbreviates: PBMC + LPS(5 ug/ml) + test article 0.001 uM, Mean.
The mark [2] stands for this setting: PBMC + LPS(5 ug/ml) + test article 0.001 uM, single replicates (1st, 2nd, 3rd).
The mark [3] stands for this setting: PBMC + LPS(5 ug/ml) + test article 0.01 uM, Mean.
Where [4] appears, read: PBMC + LPS(5 ug/ml) + test article 0.01 uM, single replicates (1st, 2nd, 3rd).
Where [5] appears, read: PBMC + LPS(5 ug/ml) + test article 0.1 uM, Mean.
Where [6] appears, read: PBMC + LPS(5 ug/ml) + test article 0.1 uM, single replicates (1st, 2nd, 3rd).
Where [7] appears, read: PBMC + LPS(5 ug/ml) + test article 1 uM, Mean.
Where [8] appears, read: PBMC + LPS(5 ug/ml) + test article 1 uM, single replicates (1st, 2nd, 3rd).
Setting [9] is: PBMC + LPS(5 ug/ml) + test article 10 uM, Mean.
The mark [10] stands for this setting: PBMC + LPS(5 ug/ml) + test article 10 uM, single replicates (1st, 2nd, 3rd).
The mark [11] stands for this setting: PBMC + LPS(5 ug/ml) + test article 100 uM, Mean.
Where [12] appears, read: PBMC + LPS(5 ug/ml) + test article 100 uM, single replicates (1st, 2nd, 3rd).

The structures appear in SMILES notation. Values joined by “and” are separate entries in the source; they are usually repeats but may differ in a detail not shown here. Equal entries are not always repeated. Where a SMILES comes first, the peptide text is derived from it. [ ]: non-standard residue; d: D form. Hyp = O=C(O)[C@@H]1C[C@@H](O)CN1

On to `CC(C)C[C@H](NC(=O)CNC(=O)[C@H](CC(C)C)NC(=O)[C@H](CCC(N)=O)NC(=O)CNC(=O)[C@@H]1C[C@@H](O)CN1)C(=O)N[C@@H](C)C(=O)NCC(=O)N1CCC[C@H]1C(=O)N[C@@H](CCCCN)C(=O)O` [YDE-011] (H-[Hyp]GQLGLAGPK-OH), for which the Concentration under setting [1] was 26175.1 pg/mL; the Concentration under setting [2] is 25949.1 pg/mL and 25243.2 pg/mL and 27333.0 pg/mL; the Concentration under setting [3] worked out at 27857.4 pg/mL; the Concentration under setting [4] was 29106.4 pg/mL and 27148.3 pg/mL and 27317.6 pg/mL; the Concentration under setting [5] came to 25867.3 pg/mL; the Concentration under setting [6] was 25672.8 pg/mL and 26225.6 pg/mL and 25703.5 pg/mL. In addition, the Concentration is 25627.6 pg/mL under setting [7]; 26271.7 pg/mL and 26379.3 pg/mL and 24231.7 pg/mL under setting [8]; 25105.4 pg/mL under setting [9]; 25626.7 pg/mL and 25335.2 pg/mL and 24354.2 pg/mL under setting [10]; 26038.5 pg/mL under setting [11]; 27702.6 pg/mL and 26563.8 pg/mL and 23849.1 pg/mL under setting [12]. Also, the conc/live cell was 4943.8 pg/10^5 under setting [1]; 5766.5 pg/10^5 and 4352.3 pg/10^5 and 4712.6 pg/10^5 under setting [2]; 4784.6 pg/10^5 under setting [3]; 4694.6 pg/10^5 and 5323.2 pg/10^5 and 4336.1 pg/10^5 under setting [4]; 4548.1 pg/10^5 under setting [5]; 3889.8 pg/10^5 and 5245.1 pg/10^5 and 4509.4 pg/10^5 under setting [6]. For the same compound, the conc/live cell reads like this: under setting [7], 5106.9 pg/10^5; under setting [8], 4776.7 pg/10^5 and 5495.7 pg/10^5 and 5048.3 pg/10^5; under setting [9], 4765.2 pg/10^5; under setting [10], 4745.7 pg/10^5 and 4368.1 pg/10^5 and 5181.8 pg/10^5; under setting [11], 4290.3 pg/10^5; under setting [12], 4541.4 pg/10^5 and 4354.7 pg/10^5 and 3974.8 pg/10^5.

`CC(C)C[C@H](NC(=O)[C@H](CCC(N)=O)NC(=O)CNC(=O)[C@@H]1C[C@@H](O)CN1)C(=O)NCC(=O)O` [YDE-043] (H-[Hyp]GQLG-OH; N-terminus and C-terminus assumed): the Concentration reads like this: under setting [1], 27612.8 pg/mL; under setting [2], 25319.8 pg/mL and 28134.2 pg/mL and 29384.5 pg/mL; under setting [3], 27805.6 pg/mL; under setting [4], 28010.8 pg/mL and 27056.0 pg/mL and 28350.1 pg/mL; under setting [5], 26729.6 pg/mL; under setting [6], 27502.4 pg/mL and 24737.2 pg/mL and 27949.2 pg/mL. Further, the Concentration is, setting by setting: under setting [7], 26441.2 pg/mL; under setting [8], 27517.8 pg/mL and 23008.1 pg/mL and 28797.5 pg/mL; under setting [9], 29354.3 pg/mL; under setting [10], 28998.3 pg/mL and 34618.6 pg/mL and 24446.1 pg/mL; under setting [11], 25505.9 pg/mL; under setting [12], 26994.4 pg/mL and 24017.4 pg/mL. Further, the conc/live cell is 5610.5 pg/10^5 under setting [1]; 5754.5 pg/10^5 and 4689.0 pg/10^5 and 6387.9 pg/10^5 under setting [2]; 5331.3 pg/10^5 under setting [3]; 6224.6 pg/10^5 and 4099.4 pg/10^5 and 5670.0 pg/10^5 under setting [4]; 4969.6 pg/10^5 under setting [5]; 5500.5 pg/10^5 and 4417.4 pg/10^5 and 4990.9 pg/10^5 under setting [6]. Further, the conc/live cell was 4990.4 pg/10^5 under setting [7]; 4744.4 pg/10^5 and 4793.4 pg/10^5 and 5433.5 pg/10^5 under setting [8]; 5450.9 pg/10^5 under setting [9]; 5576.6 pg/10^5 and 6410.8 pg/10^5 and 4365.4 pg/10^5 under setting [10]; 4053.3 pg/10^5 under setting [11]; 4353.9 pg/10^5 and 3752.7 pg/10^5 under setting [12].
